Where two headings read alike, the source gives them in different places.
What was measured:
Assay in all cases: biochemical
Parameters in all cases: Eurofins DiscoverX kinase panel, competitive binding assay at 1 uM, percent of DMSO control
Conditions in all cases: competitive binding, percent of DMSO control
CHK1 = biological target: T1, CHK1 (Homo sapiens, UniProt O14757)
T1 construct: gene CHEK1
T1 sequence (O14757 1-476): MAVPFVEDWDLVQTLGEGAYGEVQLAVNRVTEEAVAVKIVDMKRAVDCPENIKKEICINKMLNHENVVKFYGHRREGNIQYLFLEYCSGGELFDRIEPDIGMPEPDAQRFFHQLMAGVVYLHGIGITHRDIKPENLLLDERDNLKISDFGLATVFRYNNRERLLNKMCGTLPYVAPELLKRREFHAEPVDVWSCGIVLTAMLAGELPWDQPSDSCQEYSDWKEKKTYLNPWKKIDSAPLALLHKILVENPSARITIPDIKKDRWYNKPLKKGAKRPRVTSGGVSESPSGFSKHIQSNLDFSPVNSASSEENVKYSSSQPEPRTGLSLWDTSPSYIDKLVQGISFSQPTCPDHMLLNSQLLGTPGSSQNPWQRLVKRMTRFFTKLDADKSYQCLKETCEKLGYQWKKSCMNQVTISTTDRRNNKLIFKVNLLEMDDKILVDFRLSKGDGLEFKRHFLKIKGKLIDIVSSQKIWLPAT
Method in brief: (§1)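 Competitive binding assay across a 96-kinase panel with KIF18A compounds at 1 µM; values given as percentage of control (POC), single experiment.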

TIE2 = biological target: T2, TIE2 (Homo sapiens, UniProt Q02763)
T2 construct: gene TEK
Method in brief: as §1

LCK = LCK (Homo sapiens, UniProt P06239)
Method in brief: as §1

HIPK1 = HIPK1 (Homo sapiens, UniProt Q86Z02)
Method in brief: as §1

[1] = read-out: Kinome Profiling performed by Eurofins DiscoverX / AM-1882, 1.0 µM / POC
[2] = read-out: Kinome Profiling performed by Eurofins DiscoverX / AM-0277, 1.0 µM / POC
[3] = read-out: Kinome Profiling performed by Eurofins DiscoverX / AM-5308, 1.0 µM / POC

Sequence of HIPK1 (Q86Z02 whole entry): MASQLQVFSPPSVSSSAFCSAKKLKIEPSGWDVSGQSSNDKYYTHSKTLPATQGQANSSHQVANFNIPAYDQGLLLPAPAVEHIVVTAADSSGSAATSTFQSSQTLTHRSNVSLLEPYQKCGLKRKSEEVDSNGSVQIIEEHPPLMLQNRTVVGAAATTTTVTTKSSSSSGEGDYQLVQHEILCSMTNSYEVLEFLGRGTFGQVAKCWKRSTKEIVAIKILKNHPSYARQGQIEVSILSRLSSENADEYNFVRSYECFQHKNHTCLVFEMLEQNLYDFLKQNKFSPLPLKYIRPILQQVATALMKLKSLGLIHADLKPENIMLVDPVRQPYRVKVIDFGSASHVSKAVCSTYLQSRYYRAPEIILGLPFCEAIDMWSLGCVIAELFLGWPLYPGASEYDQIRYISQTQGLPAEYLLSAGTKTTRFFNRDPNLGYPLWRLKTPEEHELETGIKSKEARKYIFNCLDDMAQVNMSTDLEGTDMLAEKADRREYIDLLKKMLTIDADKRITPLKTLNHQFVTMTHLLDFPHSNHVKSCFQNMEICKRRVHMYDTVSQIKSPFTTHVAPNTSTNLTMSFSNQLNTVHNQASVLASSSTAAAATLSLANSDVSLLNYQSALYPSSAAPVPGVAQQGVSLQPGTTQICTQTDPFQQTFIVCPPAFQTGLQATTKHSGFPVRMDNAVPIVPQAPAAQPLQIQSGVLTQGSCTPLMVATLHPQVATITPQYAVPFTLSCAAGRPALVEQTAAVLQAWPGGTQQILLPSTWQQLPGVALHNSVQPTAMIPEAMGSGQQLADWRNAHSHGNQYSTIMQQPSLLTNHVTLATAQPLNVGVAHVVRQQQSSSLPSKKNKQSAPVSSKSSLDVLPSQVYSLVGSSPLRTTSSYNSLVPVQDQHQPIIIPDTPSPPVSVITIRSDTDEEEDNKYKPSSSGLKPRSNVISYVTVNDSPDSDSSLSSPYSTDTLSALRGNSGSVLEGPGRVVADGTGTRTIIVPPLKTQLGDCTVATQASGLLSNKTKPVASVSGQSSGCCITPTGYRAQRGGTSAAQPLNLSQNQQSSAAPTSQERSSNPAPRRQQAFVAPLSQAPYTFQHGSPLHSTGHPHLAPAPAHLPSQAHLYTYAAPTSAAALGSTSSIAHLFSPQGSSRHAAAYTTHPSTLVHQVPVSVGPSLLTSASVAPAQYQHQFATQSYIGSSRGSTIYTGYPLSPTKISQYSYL
Sequence of LCK (P06239 whole entry): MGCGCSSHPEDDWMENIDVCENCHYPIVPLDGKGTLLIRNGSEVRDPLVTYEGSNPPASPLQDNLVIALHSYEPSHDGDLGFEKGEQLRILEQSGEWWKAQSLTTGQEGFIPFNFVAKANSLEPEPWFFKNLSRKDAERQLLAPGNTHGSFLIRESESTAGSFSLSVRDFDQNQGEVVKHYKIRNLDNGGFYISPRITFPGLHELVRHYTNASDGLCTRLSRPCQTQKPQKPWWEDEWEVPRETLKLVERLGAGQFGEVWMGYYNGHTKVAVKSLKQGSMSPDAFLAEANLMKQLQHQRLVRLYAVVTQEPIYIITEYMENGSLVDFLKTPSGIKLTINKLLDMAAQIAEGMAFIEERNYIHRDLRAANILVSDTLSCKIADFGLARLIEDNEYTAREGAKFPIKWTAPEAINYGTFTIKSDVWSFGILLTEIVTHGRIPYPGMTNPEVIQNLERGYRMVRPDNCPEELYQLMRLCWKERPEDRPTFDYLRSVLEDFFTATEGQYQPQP
T2 sequence (Q02763 whole entry): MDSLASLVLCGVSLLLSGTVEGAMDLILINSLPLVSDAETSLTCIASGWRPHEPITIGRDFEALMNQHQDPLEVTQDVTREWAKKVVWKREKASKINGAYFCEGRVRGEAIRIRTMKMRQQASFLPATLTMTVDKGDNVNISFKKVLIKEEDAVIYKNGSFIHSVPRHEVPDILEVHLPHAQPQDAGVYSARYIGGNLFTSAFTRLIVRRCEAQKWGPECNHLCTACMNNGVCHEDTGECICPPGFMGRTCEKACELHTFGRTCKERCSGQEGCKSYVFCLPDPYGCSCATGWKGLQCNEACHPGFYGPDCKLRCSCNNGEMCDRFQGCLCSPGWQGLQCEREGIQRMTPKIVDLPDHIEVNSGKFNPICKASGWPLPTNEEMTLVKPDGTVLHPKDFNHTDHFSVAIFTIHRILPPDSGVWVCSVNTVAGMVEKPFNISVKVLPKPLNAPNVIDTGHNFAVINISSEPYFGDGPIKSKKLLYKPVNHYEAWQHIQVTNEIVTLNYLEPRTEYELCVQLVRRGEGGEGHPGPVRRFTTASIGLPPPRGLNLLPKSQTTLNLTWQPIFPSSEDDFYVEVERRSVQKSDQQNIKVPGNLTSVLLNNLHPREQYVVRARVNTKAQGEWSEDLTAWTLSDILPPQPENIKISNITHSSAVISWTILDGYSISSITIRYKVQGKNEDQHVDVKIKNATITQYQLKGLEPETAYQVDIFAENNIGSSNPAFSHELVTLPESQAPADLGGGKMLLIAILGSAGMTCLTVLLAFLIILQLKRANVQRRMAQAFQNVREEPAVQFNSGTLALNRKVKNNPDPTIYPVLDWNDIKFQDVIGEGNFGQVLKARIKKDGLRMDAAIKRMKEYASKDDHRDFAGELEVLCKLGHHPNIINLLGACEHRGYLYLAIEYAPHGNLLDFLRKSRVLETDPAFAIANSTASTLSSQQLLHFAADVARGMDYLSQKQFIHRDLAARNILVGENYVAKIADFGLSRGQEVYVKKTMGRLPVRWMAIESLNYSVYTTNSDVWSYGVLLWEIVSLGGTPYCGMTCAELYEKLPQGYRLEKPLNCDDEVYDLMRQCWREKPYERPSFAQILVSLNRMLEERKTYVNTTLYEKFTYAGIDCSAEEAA

CC(C)(C)NS(=O)(=O)c1cccc(NC(=O)c2ccc(S(=O)(=O)NC(C)(C)C)cc2N2CCC3(CC2)CC3)c1 [AM-1882]
remaining activity at 1 µM (CHK1; [1]): 100% | remaining activity at 1 µM (TIE2; [1]): 94.5% | remaining activity at 1 µM (LCK; [1]): 95% | remaining activity at 1 µM (HIPK1; [1]): 73%

CC(C)(CO)Nc1ccc(C(=O)Nc2cccc(S(=O)(=O)C3CCCC3)c2)c(N2CCC3(CC2)CC3)n1 [AM-0277]
remaining activity at 1 µM (CHK1; [2]): 100% | remaining activity at 1 µM (TIE2; [2]): 77% | remaining activity at 1 µM (LCK; [2]): 92% | remaining activity at 1 µM (HIPK1; [2]): 61%

C[C@@H]1CN(c2cccc(NC(=O)c3ccc(NS(=O)(=O)CCO)cc3N3CCC4(CC3)CC4)n2)CCO1 [AM-5308]
remaining activity at 1 µM (CHK1; [3]): 100% | remaining activity at 1 µM (TIE2; [3]): 90% | remaining activity at 1 µM (LCK; [3]): 92% | remaining activity at 1 µM (HIPK1; [3]): 100%
